In ChEMBL document CHEMBL1201862, “PubChem BioAssay data set” (2004):
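A five-concentration, 48-hour dose response in 96-well plates underlies each endpoint, interpolated linearly between surrounding concentrations. Abbreviation: GI50, concentration required for 50% inhibition of growth.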 The source made the active and inactive calls. Rule as the data show it: active = GI50 up to about 1.1 µM and inactive = higher.

Legend:
Experiment in all cases: inhibition of tumour cell growth, NCI panel, 48 h
UO-31 = tested on: UO-31
A549 = tested on: A549
786-0 = tested on: 786-0
Hs-578T = tested on: Hs-578T
BT-549 = tested on: BT-549
ACHN = tested on: ACHN
NCI-H522 = tested on: NCI-H522
HCC 2998 = tested on: HCC 2998
PC-3 = tested on: PC-3
SNB-75 = tested on: SNB-75
MDA-N = tested on: MDA-N
RPMI-8226 = tested on: RPMI-8226
SR = tested on: SR
NCI/ADR-RES = tested on: NCI/ADR-RES
MDA-MB-435 = tested on: MDA-MB-435
SF-295 = tested on: SF-295
UACC-62 = tested on: UACC-62
Malme-3M = tested on: Malme-3M
SF-268 = tested on: SF-268
HL-60 = tested on: HL-60
HT-29 = tested on: HT-29
IGROV-1 = tested on: IGROV-1
HOP-92 = tested on: HOP-92
HOP-62 = tested on: HOP-62
MCF7 = tested on: MCF7
OVCAR-3 = tested on: OVCAR-3
OVCAR-8 = tested on: OVCAR-8
T47D = tested on: T47D
SN12C = tested on: SN12C
MDA-MB-231 = tested on: MDA-MB-231
HCT-15 = tested on: HCT-15
MOLT-4 = tested on: MOLT-4
NCI-H23 = tested on: NCI-H23
EKVX = tested on: EKVX
OVCAR-5 = tested on: OVCAR-5
DU-145 = tested on: DU-145
SK-MEL-28 = tested on: SK-MEL-28
A498 = tested on: A498
SK-OV-3 = tested on: SK-OV-3
HCT-116 = tested on: HCT-116
UACC-257 = tested on: UACC-257
KM12 = tested on: KM12
TK-10 = tested on: TK-10
K562 = tested on: K562
M14 = tested on: M14
SK-MEL-2 = tested on: SK-MEL-2
NCI-H226 = tested on: NCI-H226
LOX IMVI = tested on: LOX IMVI
U-251 = tested on: U-251
RXF 393 = tested on: RXF 393
SF-539 = tested on: SF-539
SK-MEL-5 = tested on: SK-MEL-5
COLO 205 = tested on: COLO 205
OVCAR-4 = tested on: OVCAR-4
SNB-19 = tested on: SNB-19
SW-620 = tested on: SW-620
NCI-H460 = tested on: NCI-H460
CAKI-1 = tested on: CAKI-1
CCRF-CEM = tested on: CCRF-CEM

## CCSCCC(N)C(=O)O (stereo not given)
UO-31
  GI50: > 100 µM (inactive)
A549
  GI50: > 100 µM (inactive)
786-0
  GI50: > 100 µM (inactive)
Hs-578T
  GI50: > 100 µM (inactive)
BT-549
  GI50: > 100 µM (inactive)
ACHN
  GI50: > 100 µM (inactive)
NCI-H522
  GI50: > 100 µM (inactive)
HCC 2998
  GI50: > 100 µM (inactive)
PC-3
  GI50: > 100 µM (inactive)
SNB-75
  GI50: > 100 µM (inactive)
MDA-N
  GI50: > 100 µM (inactive)
RPMI-8226
  GI50: > 100 µM (inactive)
SR
  GI50: > 100 µM (inactive)
NCI/ADR-RES
  GI50: > 100 µM (inactive)
MDA-MB-435
  GI50: > 100 µM (inactive)
SF-295
  GI50: > 100 µM (inactive)
UACC-62
  GI50: > 100 µM (inactive)
Malme-3M
  GI50: > 100 µM (inactive)
SF-268
  GI50: > 100 µM (inactive)
HL-60
  GI50: > 100 µM (inactive)
HT-29
  GI50: > 100 µM (inactive)
IGROV-1
  GI50: > 100 µM (inactive)
HOP-92
  GI50: > 100 µM (inactive)
HOP-62
  GI50: > 100 µM (inactive)
MCF7
  GI50: > 100 µM (inactive)
OVCAR-3
  GI50: > 100 µM (inactive)
OVCAR-8
  GI50: > 100 µM (inactive)
T47D
  GI50: > 100 µM (inactive)
SN12C
  GI50: > 100 µM (inactive)
MDA-MB-231
  GI50: > 100 µM (inactive)
HCT-15
  GI50: > 100 µM
MOLT-4
  GI50: > 100 µM (inactive)
NCI-H23
  GI50: > 100 µM (inactive)
EKVX
  GI50: > 100 µM (inactive)
OVCAR-5
  GI50: > 100 µM (inactive)
DU-145
  GI50: > 100 µM (inactive)
SK-MEL-28
  GI50: > 100 µM (inactive)
A498
  GI50: > 100 µM (inactive)
SK-OV-3
  GI50: > 100 µM (inactive)
HCT-116
  GI50: > 100 µM (inactive)
UACC-257
  GI50: > 100 µM (inactive)
KM12
  GI50: > 100 µM (inactive)
TK-10
  GI50: > 100 µM (inactive)
K562
  GI50: > 100 µM (inactive)
M14
  GI50: > 100 µM (inactive)
SK-MEL-2
  GI50: > 100 µM (inactive)
NCI-H226
  GI50: > 100 µM (inactive)
LOX IMVI
  GI50: > 100 µM (inactive)
U-251
  GI50: > 100 µM (inactive)
RXF 393
  GI50: > 100 µM (inactive)
SF-539
  GI50: > 100 µM (inactive)
SK-MEL-5
  GI50: > 100 µM (inactive)
COLO 205
  GI50: > 100 µM (inactive)
OVCAR-4
  GI50: > 100 µM (inactive)
SNB-19
  GI50: > 100 µM (inactive)
SW-620
  GI50: > 100 µM (inactive)
NCI-H460
  GI50: > 100 µM (inactive)

## O=C1c2c[nH]nc2C(c2ccccc2)N1c1ccccc1 (stereo not given)
UO-31
  GI50: > 10 µM (inactive)
A549
  GI50: > 10 µM (inactive)
786-0
  GI50: > 10 µM (inactive)
Hs-578T
  GI50: > 10 µM (inactive)
BT-549
  GI50: > 10 µM (inactive)
ACHN
  GI50: > 10 µM (inactive)
NCI-H522
  GI50: > 10 µM (inactive)
HCC 2998
  GI50: > 10 µM (inactive)
PC-3
  GI50: > 10 µM (inactive)
SNB-75
  GI50: > 10 µM (inactive)
MDA-N
  GI50: > 10 µM (inactive)
RPMI-8226
  GI50: > 10 µM (inactive)
SR
  GI50: > 10 µM (inactive)
NCI/ADR-RES
  GI50: > 10 µM (inactive)
MDA-MB-435
  GI50: > 10 µM (inactive)
SF-295
  GI50: > 10 µM (inactive)
UACC-62
  GI50: > 10 µM (inactive)
Malme-3M
  GI50: > 10 µM (inactive)
SF-268
  GI50: > 10 µM (inactive)
HL-60
  GI50: > 10 µM (inactive)
HT-29
  GI50: > 10 µM (inactive)
IGROV-1
  GI50: > 10 µM (inactive)
HOP-92
  GI50: > 10 µM (inactive)
HOP-62
  GI50: > 10 µM (inactive)
MCF7
  GI50: > 10 µM (inactive)
OVCAR-3
  GI50: > 10 µM (inactive)
OVCAR-8
  GI50: > 10 µM (inactive)
T47D
  GI50: > 10 µM (inactive)
SN12C
  GI50: > 10 µM (inactive)
MDA-MB-231
  GI50: > 10 µM (inactive)
CAKI-1
  GI50: > 10 µM (inactive)
HCT-15
  GI50: > 10 µM
MOLT-4
  GI50: > 10 µM (inactive)
NCI-H23
  GI50: > 10 µM (inactive)
EKVX
  GI50: > 10 µM (inactive)
OVCAR-5
  GI50: > 10 µM (inactive)
DU-145
  GI50: > 10 µM (inactive)
SK-MEL-28
  GI50: > 10 µM (inactive)
CCRF-CEM
  GI50: > 10 µM (inactive)
A498
  GI50: > 10 µM (inactive)
SK-OV-3
  GI50: > 10 µM (inactive)
HCT-116
  GI50: > 10 µM (inactive)
UACC-257
  GI50: > 10 µM (inactive)
KM12
  GI50: > 10 µM (inactive)
TK-10
  GI50: > 10 µM (inactive)
M14
  GI50: > 10 µM (inactive)
SK-MEL-2
  GI50: > 10 µM (inactive)
NCI-H226
  GI50: > 10 µM (inactive)
LOX IMVI
  GI50: > 10 µM (inactive)
U-251
  GI50: > 10 µM (inactive)
RXF 393
  GI50: > 10 µM (inactive)
SF-539
  GI50: > 10 µM (inactive)
SK-MEL-5
  GI50: > 10 µM (inactive)
COLO 205
  GI50: > 10 µM (inactive)
OVCAR-4
  GI50: > 10 µM (inactive)
SNB-19
  GI50: > 10 µM (inactive)
SW-620
  GI50: > 10 µM (inactive)
NCI-H460
  GI50: > 10 µM (inactive)
